Laboratory results reported in patent EP1401829B1, “NOVEL HETEROCYCLIC ANTIBACTERIAL COMPOUNDS” (Microbiotix, Inc., priority 2001, dated 2002).
Marks after values point to notes of the source that are not given here.

Columns and labels:
[1] = tested on: enterococci or staphylococci strains, including MRSA and VRE strains; test: In vivo efficacy of Compound 70 in mouse models, overall statement; conditions: mice; administration from distant parenteral sites (i.e., iv, sc, or im)
Description: (§1) Using the same basic procedure as described above, the in vivo efficacy of Compound 70 was also evaluated at various doses in mice infected with S. aureaus (Smith), MRSA 1094, Enterococcus faecalis, or vancomycin-resistant Enterococcus faecalis strain VRE 700802. […] Negative controls were mice infected that received no treatment. Mucin was employed as an adjuvant to facilitate bacterial infection in mice, where indicated.

[2] = tested on: MRSA 1094; test: In vivo efficacy of Compound 70 in mouse models; parameters: species or system Staphylococcus aureus; conditions: mice, 10^7 CFU/mouse + 5% Mucin, regimen 2 (t=0,2)
Description: (§2) Swiss Webster mice, ca. 20 g each, were infected with Staphylococcus aureus (Smith strain) by the intraperitoneal route. Test compounds (2, 4, 5, 6, 7, 8, 10, 12) were dissolved in 10% dimethylsulfoxide in peanut oil to a concentration of 2 mg/ml. Vancomycin was used as positive control drug (i.e., protection from lethal infection). Fifteen minutes after infection, test compounds, vancomycin, or vehicle alone were given intraperitoneally to groups of five mice each. Animals were monitored for three days, and the number of mice surviving was tabulated for each treatment.
as §1

[3] = tested on: VRE 700802; test: In vivo efficacy of Compound 70 in mouse models; parameters: species or system Enterococcus faecalis; conditions: mice, 3x10^8 CFU/mouse + 5% Mucin
Description: as §2, §1

[4] = dose 50 mg/kg, regimen 2 (t=0,2)
[5] = dose 50 mg/kg, regimen 2 (t=0,3)
[6] = dose 75 mg/kg, regimen 2 (t=0,2-)
[7] = dose 75 mg/kg, regimen 2 (t=0,3)
[8] = dose 100 mg/kg, regimen 1 (t=0)

CCc1cc(Nc2cc(=O)n(CCCCN3CCN(c4c(F)cc5c(=O)c(C(=O)O)cn(C6CC6)c5c4F)CC3C)c(=O)[nH]2)ccc1C (centres unmarked) [Compound 70, 3-{4-[1-(1-cyclopropyl-3-carboxy-4-oxo-6,8-difluoro-7-quinolyl)-3-methyl-4-piperazinyl]butyl}-6-(3-ethyl-4-methylanilino)uracil]
activity against intra-peritoneal challenge [1]: dose-related activity
% Survival at 72 hours ([2]; dose 25 mg/kg): 0% (0/5)
% Survival at 72 hours ([2]; dose 50 mg/kg): 55% (11/20)*
% Survival at 72 hours ([2]; dose 75 mg/kg): 80% (4/5)
% Survival at 72 hours [3, 4]: 10% (1/10)
Mean Survival Time [3, 4]: 45 h
% Survival at 72 hours [3, 5]: 0% (0/5)
Mean Survival Time [3, 5]: 35 h
% Survival at 72 hours [3, 6]: 0% (0/5)
Mean Survival Time [3, 6]: 50 h
% Survival at 72 hours [3, 7]: 40% (2/5)
Mean Survival Time [3, 7]: 50 h
% Survival at 72 hours [3, 8]: 0% (0/5)
Mean Survival Time [3, 8]: 34 h
